The values that follow come from patent publication US5395842A, “Anti-estrogenic compounds and compositions” (Endorecherche Inc., priority 1991, dated 1995).

In test [1] the test system is 17β-hydroxysteroid dehydrogenase. The conditions noted are these: Thomas et al., 1983; cited from earlier work.
The test system of test [2] is 17β-hydroxysteroid dehydrogenase (17β-HSD). In words: inhibition of 17β-HSD catalyzed conversion of estradiol to estrone (NADH formation at 340 nm). It counts as biochemical, human. The conditions noted are these: increasing concentrations; 1 μg 17β-HSD, 5 mM NAD, 20 μM 17β-estradiol, pH 7.5, 25° C., 15 min; FIG. 4. The text has this: To test the effect of "EM 139" on the inhibition of sex steroid formation, its effect on the 17β-hydroxysteroid dehydrogenase catalyzed conversion of estradiol to estrone was observed. The reaction was followed by monitoring formation of NADH (at 340 nm). The rate of conversion of cofactor NAD to NADH varies directly with the rate of estradiol conversion to estrone. The ability of "EM 139" to inhibit estrone production is indicative of its ability to inhibit the estrogen-forming reverse reaction because both reactions are catalyzed by 17β-hydroxysteroid dehydrogenase (Thomas et al., J. Biol. Chem. 258: 11500-11504, 1983). 17β-hydroxysteroid dehydrogenase (17β-HSD) was purified to homogeneity from human placenta. A reaction vessel was prepared containing 1 μg 17β-HSD, 5 mM NAD, 20 μM 17β-estradiol, and the concentrations of the test compound "EM 139" which are indicated along the X-axis of FIG. 4 in 1.0 ml of a mixture of Tris-HCl (50 mM), EDTA (2 mM), NaN3 (5 mM). The pH was 7.5. The reaction was allowed to proceed at 25° C. for 15 min. Formation of NADH was measured at 340 nm.

In test [3] the test system is uterine weight in adult female ovariectomized Balb/c mice. In words: inhibition of the estradiol-induced stimulation of uterine weight in adult female ovariectomized Balb/c mice. It counts as in vivo. How it is done: EM-142, and/or estradiol contained in ethanol were injected subcutaneously in the appropriate groups in a solution of 0.9% (w/v) sodium chloride and 1% (w/v) gelatin at different concentrations in 0.2 ml for EM-142, twice daily, starting on the day of ovariectomy for a total of 9 injections. Estradiol was injected at the dose of 0.01 μg in 0.2 ml, twice daily, starting on the morning after ovariectomy for a total of 8 injections.
After sacrifice, the uteri were rapidly removed, freed from fat and connective tissue and weighted. Results shown in FIG. 2 are the means±SEM of groups of 9-10 mice.
"EM 139", and/or estradiol dissolved in ethanol were injected subcutaneously in the appropriate groups in a solution of 0.9% (w/v) sodium chloride and 1% (w/v) gelatin at different concentrations of "EM 139" (as noted along the X axis of FIG. 3). A dosage of 0.2 ml of the foregoing preparation, was administered twice daily, starting on the day of ovariectomy for a total of 9 injections. Estradiol was injected at the dose of 0.01 μg in 0.2 ml, twice daily, starting on the morning after ovariectomy for a total of 8 injections.
After sacrifice, the uteri were rapidly removed, freed from fat and connective tissue and weighed. Results shown in FIG. 3 are the means±SEM of groups of 9-10 mice.

The conditions of test [4]: reported by Saeed et al. and Sharma et al., 1990; cited from earlier work.
Test [5] concerns ZR-75-1 human breast cancer cell line. The experiment in a line: growth of ZR-75-1 human breast cancer cells. It counts as cell-based. The conditions noted are these: for IC50: Homo sapiens, 240 h, 10 days, read-out: half-maximal effectiveness / IC50 on growth of ZR-75-1 cells. Here is the method: ZR-75-1 cells (83rd passage) were obtained from the American Type Culture Collection (Rockville, Md.) and routinely cultured in phenol-red free RPMI 1640 supplemented with 1 nM E2, 2 mM L-glutamine, 1 mM sodium pyruvate, 15 mM N-2-hydroxyethyl-piperazine-N'-2-ethanesulfonic acid, 100 IU penicillin/ml, 100 μg streptomycin/ml, and 10% (v/v) fetal bovine serum (Hyclone, Logan, UT) under a humidified atmosphere of 95% air, 5% CO2, at 37° C. All media and medium supplements were purchased from Sigma. Cells were subcultured weekly by treatment with a pancreatic solution containing 0.02% EDTA (w/v). The cell cultures used for the experiments herein described were between passages 89 and 94.
Cells in their logarithmic growth phase were harvested, briefly centrifuged, and resuspended in RPMI 1640. Cells were then plated in triplicate in LIMBRO 24-well plastic culture plates (2 cm^2 /well). Since plating density influences the effect of hormones on ZR-75-1 cell growth, cells were plated at a density of 1×10^4 cells/well. After 72 h, medium was replaced with fresh medium of identical composition containing, in addition, the concentrations of steroids and/or inhibitors (e.g. EM 312 or EM 343) indicated along the X-axis of FIG. 5. Control cultures received the ethanol vehicle only. Cells were then allowed to grow at 37° C. for 10 days with medium changes (of identical composition) every 2 days. In absence of inhibitors, in 0.1 nM estradiol (E2)-containing medium, ZR-75-1 cells have doubling time of about 48 h.
After E2 and/or antiestrogen treatment, cells were harvested by addition of 0.5 ml of a pancreatin solution (Sigma) for 5-10 min at 37° C. before addition of 0.5 ml of RPMI 1640 containing 5% dextran-coated charcoal-fetal bovine serum in order to block enzymatic action. Cell number (0.10-ml aliquot) was determined by measurement of DNA content as previously described (Simard et al., Endocrinology 126: 3223-3231, 1990).

The next test concerns advanced breast cancer. The conditions noted are these: H. Mouridsen et al., 1978; cited from earlier work.
Test [6] concerns rat uterine cytosol estrogen receptor. In words: competition binding on the rat uterine cytosol estrogen receptor with [3H] estradiol. The conditions noted are these: 25° C., FIG. 1. How it is done:
J. Endocrinol. 112: R7-R110) and EM-142 (an antiestrogen having a nonsteroidal nucleus and synthesized in example 1, herein) for the rat uterine cytosol receptor ([…] et al., 1978; J. Steroid Biochem. 9: 1079-1082). EM-142 from example 1 was tested by competition binding on the rat uterine cytosol estrogen receptor with [^3 H] estradiol according to […] et al. (1976) prodecure. […] (incubation was performed at 25° C. for 3 hours).

In the case of `C=C1C[C@H]2[C@@H]3CCc4cc(O)ccc4[C@H]3CC[C@]2(C)[C@H]1O` [16-methylene estradiol], the “inhibition of 17β-hydroxysteroid dehydrogenase activity (in words)” value in test [1] is “inhibitors of 17β-hydroxysteroid dehydrogenase activity”.

As to `CCCCN(C)C(=O)CCCCCCCCCC[C@@H]1Cc2cc(O)ccc2[C@H]2CC[C@]3(C)[C@@H](O)[C@H](Cl)C[C@H]3[C@H]12` [EM 139, N-n-butyl-N-methyl-11-(16'α-chloro-3',17'β-dihydroxy-estra-1',3',5'(10') -trien-7' α-yl) undecanamide], the “inhibition of 17β-HSD reaction (in words)” value in test [2] was “significantly inhibited the reaction”. The “reduction of estradiol-induced uterine weight gain (in words)” value in test [3] (s.c., twice daily, 9 injections, FIG. 3) is “highly effective in reducing estradiol-induced uterine weight gain”.

On to `Oc1ccc(C2=Cc3ccc(O)cc3OC2c2ccc(OCCN3CCCCC3)cc2)cc1` (stereo not shown) [EM 312], for which the “antiestrogenic activity (in words)” value in test [4] is “antiestrogenic activity”. Besides, the IC50 in test [5] (ZR-75-1 cells, FIG. 5) is 0.843 nM. Further, the “fold by which IC50 is higher than that of EM 343” value in test [5] (ZR-75-1 cells, relative to EM 343, FIG. 5) is reported as 3 -fold. In addition, the “comparative effect on growth of ZR-75-1 cells vs EM 343 (in words)” value in test [5] (comparative testing in the applicant's laboratory) is recorded as “underperformed EM 343”.

For `CC/C(=C(\c1ccccc1)c1ccc(OCCN(C)C)cc1)c1ccccc1` [Tamoxifen], in the test with advanced breast cancer, the “women patients with remission of advanced breast cancer” value is “about 30%”.

Turning to `CC1=C(c2ccc(O)cc2)C(c2ccc(OCCN3CCCCC3)cc2)Oc2cc(O)ccc21` (stereo not shown) [EM 343], in test [5] (ZR-75-1 cells, FIG. 5), the IC50 was found to be 0.255 nM. Moreover, the “cell growth inhibition (in words)” value in test [5] (ZR-75-1 cells, low concentration, FIG. 5) was “extensive cell growth inhibition”.

In the case of `CCCCN(C)C(=O)CCCCCCCCCCC(=C(CC)c1ccc(O)cc1)c1ccc(O)cc1` [EM 142, N-butyl, N-methyl-12,13-Bis(4-hydroxyphenyl)-12-pentadecenoic amide], in test [6], the “binding potency compared with the antiestrogen ICI 164384 (in words)” value is on record as “more potent” and the “times less potent than 17β-estradiol” value stood at 3 times. For the same compound, the “inhibitory effect on E2-induced uterine growth (in words)” value in test [3] (0.3 μg, s.c., twice daily, estradiol 0.01 μg, FIG. 2) is on record as “significant inhibitory effect”. Further, the “reversal of estrogenic action on uterine weight (in words)” value in test [3] (20 μg, s.c., twice daily, estradiol 0.01 μg, FIG. 2) is given as “complete reversal of estrogenic action”. Besides, the “estrogenic effect on uterine weight (in words)” value in test [3] (EM-142, agonism on uterine weight) is listed as “no estrogenic effect on uterine weight”.

On to `C=C1C[C@H]2[C@@H]3CCc4cc(O)ccc4[C@H]3CC[C@]2(C)C1=O` [16-methylene estrone], for which the “inhibition of 17β-hydroxysteroid dehydrogenase activity (in words)” value in test [1] is listed as “inhibitors of 17β-hydroxysteroid dehydrogenase activity”.
